Measured values published in patent US20080281526A1, “Methods For Molecular Toxicology Modeling” (priority 2004, published 2008).
Read-outs that look alike come from different tables or passages of the source.

Tested on: rat liver tissue
Method: From the nucleic acid hybridization data, a prediction score is calculated for that sample and compared to a reference score from a toxicity reference database according to the following equation. The sample prediction score=ΣwiR^FC^i. “i” is the index number for each gene in a gene expression profile to be evaluated. “wi” is the PLS weight (or PLS score, see Table 2 for an exemplary list of PLS scores for a general kidney toxicity model) for each gene. “R^FC^i” is the RMA fold-change value for the i^th gene, as determined from a normalized RMA matrix of gene expression data from the sample (described above). The PLS weight multiplied by the RMA fold-change value gives a gene regulation score for each gene, and the regulation scores for all the individual genes are added to give a prediction score for the sample.
To establish a toxicity prediction score cut-off value for a toxicity model, the true-positive and false positive rates for each possible score cut-off value are computed, using the scores from all tox and non-tox samples in the training set. This generates an ROC curve, which we use to set the cut-off score at the point on the ROC curve corresponding to ˜5% false positive rate. For example, in a kidney toxicity model of Table 2, a cut-off prediction score is about 0.318.
The conversion algorithm was tested using the liver toxicity model described in U.S. Provisional Application Ser. No. 60/559,949 and herein incorporated by reference.
The first step to using a conversion algorithm is to map microarray fragments. The RGU34 A microarray fragments which comprise the liver toxicity model were mapped to the RAE2.0 microarray. The liver toxicity model is based on 1,100 Affymetrix GeneChip® RGU34 A microarray fragments. […] See Affymetrix's “User's Guide to Product Comparison Spreadsheets” which is herein incorporated by reference.
Once the microarray fragments are mapped, training samples are selected to calculate the conversion model weights. The inventors searched Gene Logic's ToxExpress® reference database, a database which is built on the Affymetrix RGU34A platform, for samples that covered a large amount of interquartile range with respect to signal intensity. […] The samples maximized Ei(Max(Xij)−Min(Xij)), where i indexes genes and j indexes samples.
For this reason, a training set consisting of 100 compounds and vehicles from rat liver tissue was selected.
The 100 training samples were used to train the weights in the conversion algorithm. This step is important because it provides for the quantitative aspect of the conversion. The weight training was performed based on a multiple regression analysis with probe values as the independent variables and RMA expression as the sum of the dependent variables.
Test samples were evaluated using the trained conversion algorithm. The multiple regression model was built on the 11 perfect match probe intensities and generated a predicted RGU34 expression value from a weighted sum of RAE 2.0 probe values. Each test array was scaled to an average probe intensity of 10 (log scale). The conversion algorithm used is given as:
Yi^RGU34=βio+Σβij LOG(Xij^RAE2.0/S)

[1] = RAE2.0 converted RMA data, liver predictive model
[2] = RGU34 RMA data, liver predictive model

## CN(C)CCC=C1c2ccccc2CCc2ccccc21 [Amitryptilene]
[1]
  number of test samples predicted as toxic out of the total number of samples for that compound: 2/2
[2]
  number of test samples predicted as toxic out of the total number of samples for that compound: 1/2

## CN(C)CCC(c1ccc(Cl)cc1)c1ccccn1 (stereo not drawn) [Chlorpheniramine, chlorpheniramine]
rat, in vivo
  number of test samples predicted as toxic out of the total number of samples for that compound: 0/3

## CCOC(=O)C(C)(C)Oc1ccc(Cl)cc1 [Clofibrate]
rat, in vivo
  number of test samples predicted as toxic out of the total number of samples for that compound: 0/3

## O=C(O)c1cc(-c2ccc(F)cc2F)ccc1O [Diflunisal, diflunisal]
rat, in vivo
  number of test samples predicted as toxic out of the total number of samples for that compound: 2/3

## C[C@]12CC[C@@H]3c4ccc(O)cc4CC[C@H]3[C@@H]1CC[C@@H]2O [Estradiol, estradiol]
rat, in vivo
  number of test samples predicted as toxic out of the total number of samples for that compound: 3/3

## CCSCC[C@H](N)C(=O)O [Ethionine, ethionine]
[1]
  number of test samples predicted as toxic out of the total number of samples for that compound: 3/3
[2]
  number of test samples predicted as toxic out of the total number of samples for that compound: 3/3

## CCC1(c2ccccc2)C(=O)NC(=O)NC1=O [Phenobarbital, phenobarbital]
[1]
  number of test samples predicted as toxic out of the total number of samples for that compound: 3/3
[2]
  number of test samples predicted as toxic out of the total number of samples for that compound: 3/3

## CN(CCOc1ccc(CC2SC(=O)NC2=O)cc1)c1ccccn1 (stereo not drawn) [Rosiglitazone, rosiglitazone]
rat, in vivo
  number of test samples predicted as toxic out of the total number of samples for that compound: 0/3

## [H]/N=C(/N)N[C@H]1[C@H](O)[C@@H](O)[C@H](O[C@@H]2O[C@@H](C)[C@](O)(C=O)[C@H]2O[C@@H]2O[C@@H](CO)[C@H](O)[C@@H](O)[C@@H]2NC)[C@@H](N/C(N)=N\[H])[C@@H]1O [Streptomycin, streptomycin]
rat, in vivo
  number of test samples predicted as toxic out of the total number of samples for that compound: 0/3
